Experimental data from ChEMBL document CHEMBL1158091, “Amphimedosides, 3-alkylpyridine glycosides from a marine sponge Amphimedon sp” (J Nat Prod, 2006).
Values after ≈ are worked out from the molar mass of the structure shown.

System: P388
Assay: Cytotoxicity against mouse P388 cells by MTT assay
Type: functional, cell-based

Q: Which IC50 does the source give for `CON(CCCC/C=C\CCCCCCCCc1cccnc1)[C@@H]1O[C@H](CO)[C@@H](O)[C@H](O)[C@H]1O` [AMPHIMEDOSIDE E] here?
A: The IC50 was 2.2 µg/mL (≈ 4.58 µM).

Q: How did the IC50 turn out when `CON(CCCCCCCCC#CCCCCc1cccnc1)[C@@H]1O[C@H](CO)[C@@H](O)[C@H](O)[C@H]1O` [AMPHIMEDOSIDE B] was run?
A: The IC50 was 11 µg/mL (≈ 23 µM).

Q: Which IC50 does the source give for `CON(CC(C)CCCCCCCCCCc1cccnc1)[C@@H]1O[C@H](CO)[C@@H](O)[C@H](O)[C@H]1O` (stereo not given in full) [AMPHIMEDOSIDE D] here?
A: Its IC50 is 0.45 µg/mL (≈ 0.96 µM).

Q: With `CON(CCCCCCCCCCC#CCCc1cccnc1)[C@@H]1O[C@H](CO)[C@@H](O)[C@H](O)[C@H]1O` [AMPHIMEDOSIDE C] as the compound, how does the IC50 read?
A: Its IC50 is 5 µg/mL (≈ 10.4 µM).

Q: `CON(CCCCCCCCCCC#CCCCCc1cccnc1)[C@@H]1O[C@H](CO)[C@@H](O)[C@H](O)[C@H]1O` [AMPHIMEDOSIDE A] was tested. Which IC50 did it give?
A: Its IC50 is 11 µg/mL (≈ 21.7 µM).
